Source: ChEMBL document CHEMBL5729054, “Five membered-aminoheterocycle and 5,6-or 6,6-membered bicyclic aminoheterocyclic inhibitors of rock for the treatment of heart failure” (2022)
pIC50: −log10 of the molar value.

Target: Rho-associated protein kinase 2 (Homo sapiens, UniProt O75116)
Assay: In Vitro Assay: The effectiveness of compounds of the present invention as ROCK inhibitors can be determined in a 30 μL assay containing 20 mM HEPES, pH 7.5, 20 mM MgCl2, 0.015% Brij-35, 4 mM DTT, 5 μM ATP and 1.5 μM peptide substrate (FITC-AHA-AKRRRLSSLRA-OH) (SEQ ID No. 1). Compounds were dissolved in DMSO so that the final concentration of DMSO was <2%, and the reaction was initiated with Rho kinase variants. After incubation, the reaction was terminated by the addition of EDTA and the phosphorylated and non-phosphorylated peptides separated using a LABCHIP® 3000 Reader (Caliper Life Sciences). […] Compounds were tested in dose-response format, and the inhibition of kinase activity was calculated at each concentration of compound. The inhibition data were fit using a curve-fitting program to determine the IC50; i.e., the concentration of compound required to inhibit 50% of kinase activity.

Rho-associated protein kinase 2, sequence (O75116 whole entry, looked up, change not shown): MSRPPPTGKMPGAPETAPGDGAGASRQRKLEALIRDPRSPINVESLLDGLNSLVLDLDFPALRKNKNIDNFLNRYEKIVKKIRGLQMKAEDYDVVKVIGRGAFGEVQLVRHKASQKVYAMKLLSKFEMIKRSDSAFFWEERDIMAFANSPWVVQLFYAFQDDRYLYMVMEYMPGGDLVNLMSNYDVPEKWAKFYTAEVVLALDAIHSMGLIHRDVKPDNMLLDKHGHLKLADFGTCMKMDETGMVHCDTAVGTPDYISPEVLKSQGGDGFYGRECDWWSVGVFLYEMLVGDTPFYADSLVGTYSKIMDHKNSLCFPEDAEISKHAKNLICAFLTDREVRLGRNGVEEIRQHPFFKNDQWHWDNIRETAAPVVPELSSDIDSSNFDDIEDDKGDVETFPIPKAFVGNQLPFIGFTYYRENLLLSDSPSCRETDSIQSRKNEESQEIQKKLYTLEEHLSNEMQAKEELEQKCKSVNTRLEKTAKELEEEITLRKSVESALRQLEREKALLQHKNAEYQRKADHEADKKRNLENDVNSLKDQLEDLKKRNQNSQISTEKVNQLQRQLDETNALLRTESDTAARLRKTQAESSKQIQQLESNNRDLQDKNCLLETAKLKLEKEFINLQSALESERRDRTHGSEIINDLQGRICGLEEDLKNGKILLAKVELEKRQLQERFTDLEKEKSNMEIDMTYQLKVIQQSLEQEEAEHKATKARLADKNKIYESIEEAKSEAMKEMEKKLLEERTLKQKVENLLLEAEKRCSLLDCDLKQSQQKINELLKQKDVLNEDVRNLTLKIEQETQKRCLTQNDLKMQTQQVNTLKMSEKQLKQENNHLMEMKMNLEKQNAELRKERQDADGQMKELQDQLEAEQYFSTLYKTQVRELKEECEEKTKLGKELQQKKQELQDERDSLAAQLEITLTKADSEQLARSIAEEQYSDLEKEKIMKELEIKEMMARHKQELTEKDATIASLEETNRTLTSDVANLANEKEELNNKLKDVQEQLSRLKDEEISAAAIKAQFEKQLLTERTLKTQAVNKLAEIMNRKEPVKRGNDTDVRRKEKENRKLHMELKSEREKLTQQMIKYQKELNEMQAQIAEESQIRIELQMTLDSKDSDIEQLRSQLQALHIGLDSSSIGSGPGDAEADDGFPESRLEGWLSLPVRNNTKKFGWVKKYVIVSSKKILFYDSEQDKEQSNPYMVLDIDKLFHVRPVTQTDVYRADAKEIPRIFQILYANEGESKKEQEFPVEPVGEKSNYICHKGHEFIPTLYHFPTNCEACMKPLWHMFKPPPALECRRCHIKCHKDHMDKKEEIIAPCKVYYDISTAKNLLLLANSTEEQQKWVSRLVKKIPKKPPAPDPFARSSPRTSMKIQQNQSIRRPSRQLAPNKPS

N#Cc1cnc(NC2CC3(C2)CC(Oc2ncccc2C(N)=O)C3)nc1 (stereo unspecified)
pIC50: 5.82
